Laboratory results from ChEMBL document CHEMBL1201862, “PubChem BioAssay data set” (2004).
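1) Cells in 96-well plates. 2) Compound, 48 h, 5 concentrations. 3) Linear interpolation between surrounding doses. 4) Unreached endpoint = highest concentration. GI50 = concentration required for 50% inhibition of growth.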 Activity calls are given as the source filed them. Rule as the data show it: active = GI50 up to about 1.1 µM and inactive = higher.

Experiments:
Assay in all cases: NCI-60 cell line screen, 48 h
[1] = system: BT-549
[2] = system: SN12C
[3] = system: ACHN
[4] = system: EKVX
[5] = system: NCI-H23
[6] = system: NCI-H460
[7] = system: SF-268
[8] = system: RXF 393
[9] = system: HT-29
[10] = system: NCI-H226
[11] = system: SNB-75
[12] = system: HCT-15
[13] = system: DU-145
[14] = system: A498
[15] = system: CAKI-1
[16] = system: SF-295
[17] = system: Malme-3M
[18] = system: NCI-H522
[19] = system: COLO 205
[20] = system: SNB-19
[21] = system: UACC-62
[22] = system: U-251
[23] = system: KM12
[24] = system: M14
[25] = system: NCI/ADR-RES
[26] = system: HOP-92
[27] = system: HL-60
[28] = system: RPMI-8226
[29] = system: UACC-257
[30] = system: MDA-N
[31] = system: IGROV-1
[32] = system: OVCAR-8
[33] = system: MOLT-4
[34] = system: PC-3
[35] = system: HOP-62
[36] = system: HCT-116
[37] = system: OVCAR-4
[38] = system: TK-10
[39] = system: MDA-MB-231
[40] = system: UO-31
[41] = system: MCF7
[42] = system: SK-MEL-5
[43] = system: MDA-MB-435
[44] = system: SK-MEL-2
[45] = system: K562
[46] = system: OVCAR-3
[47] = system: CCRF-CEM
[48] = system: SF-539
[49] = system: A549
[50] = system: SK-MEL-28
[51] = system: SK-OV-3
[52] = system: LOX IMVI
[53] = system: SR
[54] = system: 786-0
[55] = system: Hs-578T
[56] = system: T47D
[57] = system: OVCAR-5
[58] = system: SW-620

O=C(O)/C(Cc1c[nH]nn1)=N\O
GI50 [1]: > 100 µM (inactive) | GI50 [2]: > 100 µM (inactive) | GI50 [3]: > 100 µM (inactive) | GI50 [4]: > 100 µM (inactive) | GI50 [5]: > 100 µM (inactive) | GI50 [6]: > 100 µM (inactive) | GI50 [7]: > 100 µM (inactive) | GI50 [8]: > 100 µM (inactive) | GI50 [9]: > 100 µM (inactive) | GI50 [10]: > 100 µM (inactive) | GI50 [11]: > 100 µM (inactive) | GI50 [12]: > 100 µM | GI50 [13]: > 100 µM (inactive) | GI50 [14]: > 100 µM (inactive) | GI50 [15]: > 100 µM (inactive) | GI50 [16]: > 100 µM (inactive) | GI50 [17]: > 100 µM (inactive) | GI50 [18]: > 100 µM (inactive) | GI50 [19]: > 100 µM (inactive) | GI50 [20]: > 100 µM (inactive) | GI50 [21]: > 100 µM (inactive) | GI50 [22]: > 100 µM (inactive) | GI50 [23]: > 100 µM (inactive) | GI50 [24]: > 100 µM (inactive) | GI50 [25]: > 100 µM (inactive) | GI50 [26]: > 100 µM (inactive) | GI50 [27]: > 100 µM (inactive) | GI50 [28]: > 100 µM (inactive) | GI50 [29]: > 100 µM (inactive) | GI50 [30]: > 100 µM (inactive) | GI50 [31]: > 100 µM (inactive) | GI50 [32]: > 100 µM (inactive) | GI50 [33]: > 100 µM (inactive) | GI50 [34]: > 100 µM (inactive) | GI50 [35]: > 100 µM (inactive) | GI50 [36]: > 100 µM (inactive) | GI50 [37]: > 100 µM (inactive) | GI50 [38]: > 100 µM (inactive) | GI50 [39]: > 100 µM (inactive) | GI50 [40]: > 100 µM (inactive) | GI50 [41]: > 100 µM (inactive) | GI50 [42]: > 100 µM (inactive) | GI50 [43]: > 100 µM (inactive) | GI50 [44]: > 100 µM (inactive) | GI50 [45]: > 100 µM (inactive) | GI50 [46]: > 100 µM (inactive) | GI50 [47]: > 100 µM (inactive) | GI50 [48]: > 100 µM (inactive) | GI50 [49]: > 100 µM (inactive) | GI50 [50]: > 100 µM (inactive) | GI50 [51]: > 100 µM (inactive) | GI50 [52]: > 100 µM (inactive) | GI50 [53]: > 100 µM (inactive) | GI50 [54]: > 100 µM (inactive) | GI50 [55]: > 100 µM (inactive) | GI50 [56]: > 100 µM (inactive) | GI50 [57]: > 100 µM (inactive) | GI50 [58]: > 100 µM (inactive)
